Measured values taken from PubChem BioAssay AID806 (SRMLSC, 2007).
Activity calls are given as the source filed them. No rule for the calls is given here.

Tested on: virus-infected cells, CPE inhibition, dose response
Assay: PubChem AID 806
Conditions: for EC90: measured here: EC90 CPE inhibition; for CC50: measured here: cytotoxicity, cell viability IC50

Structure (SMILES) | EC50 | EC90 [µM] | CC50 [µM]
CC1CC(=O)C2=C(C1)Nc1ccccc1N(C(=O)COc1ccccc1)C2c1ccco1 (stereo not drawn) | > 60 µM (inactive) | > 60 | > 60
O=C(O)c1cccc(Nc2ncnc3c2cnn3-c2ccccc2)c1 | > 60 µM (inactive) | > 60 | > 60
O=C(c1ccco1)N1CCn2c1nc1ccccc12 | > 60 µM (inactive) | > 60 | > 60
Clc1cccc(Nc2ncnc3c2cnn3-c2ccccc2)c1 | > 60 µM (inactive) | > 60 | > 60
Cc1cccc(NC(=O)C2CC(=O)OC23CCCCC3)c1 (stereo not drawn) | > 60 µM (inactive) | > 60 | > 60
O=C1CC(C(=O)Nc2ccc(C(=O)N3CCOCC3)cc2)C2(CCCCC2)O1 (stereo not drawn) | > 60 µM (inactive) | > 60 | > 60
O=C(CN1CCN(c2ncccn2)CC1)NCCC1=CCCCC1 | – | > 60 | > 60
O=C(NCc1cccs1)c1ccc(N2CCCCC2)nc1 | > 60 µM (inactive) | > 60 | > 60
CCOc1ncccc1C(=O)NCc1ccc(OC)cc1 | > 60 µM (inactive) | > 60 | > 60
CC1CN(C(=O)c2cnn3c(C(F)F)cc(-c4ccccc4)nc23)CC(C)O1 (stereo not drawn) | > 60 µM (inactive) | > 60 | > 60
COc1cccc(CNC(=O)c2ccc(S(=O)(=O)N3CCCC3)cc2)c1 | > 60 µM (inactive) | > 60 | > 60
C#CCSc1nnc(-c2ccc(C)cc2)o1 | > 60 µM (inactive) | > 60 | > 60
O=C(Nc1ccccc1-c1ccccc1)c1ccc(NC(=O)c2ccco2)cc1 | > 60 µM (inactive) | > 60 | > 60
O=C(c1cccs1)N1CCn2c1nc1ccccc12 | > 60 µM (inactive) | > 60 | > 60
COC(=O)CSc1nnc(-c2ccncc2)o1 | > 60 µM (inactive) | > 60 | > 60
CCCCN(C(=O)Cn1nnc2ccccc21)C(C(=O)NCCOC)c1ccc(OC)cc1OC (stereo not drawn) | > 60 µM (inactive) | > 60 | > 60
O=C(Nc1ccc(Cl)cn1)c1cc2ccccc2o1 | > 60 µM (inactive) | > 60 | > 60
COc1cc(OC)c(C2=NOC(C(=O)Nc3cc(C)nn3-c3ccccc3)C2)cc1Cl (stereo not drawn) | > 60 µM (inactive) | > 60 | > 60
CCC1CCCCN1C(=O)Nc1cccc(NC(=O)N2CCCCC2CC)c1 (stereo not drawn) | > 60 µM (inactive) | > 60 | > 60
O=C(c1cnn2c(C(F)(F)F)cc(-c3ccc(Br)cc3)nc12)N1CCOCC1 | > 60 µM (inactive) | > 60 | > 60
CC(C)(C)OC(=O)NCCc1nnc(SCc2ccc(Cl)cc2)o1 | > 60 µM (inactive) | > 60 | > 60
Cc1cccc(C)c1NC(=O)CCS(=O)(=O)c1cccc2nsnc12 | > 60 µM (inactive) | > 60 | > 60
CCCOc1ccc(C(=O)C(CN2CCOCC2)c2ccccc2)cc1 (stereo not drawn) | > 60 µM (inactive) | > 60 | > 60

Structure (SMILES) | EC50 | EC90 [µM] | CC50 [µM]
O=C(c1cc2ccccc2o1)n1nnc2ccccc21 | > 60 µM (inactive) | > 60 | > 60
CC(c1ccco1)N(C(=O)CSc1ccc(Br)cc1)c1ccccn1 (stereo not drawn) | > 60 µM (inactive) | > 60 | > 60
CC(c1ccco1)N(C(=O)COc1ccc(Cl)cc1)c1ccccn1 (stereo not drawn) | > 60 µM (inactive) | > 60 | > 60
CCOc1ccc(NC(=O)CCS(=O)(=O)c2cccc3nsnc23)cc1 | > 60 µM (inactive) | > 60 | > 60
CCCCC(CC)CNC(=O)CCS(=O)(=O)c1cccc2nsnc12 (stereo not drawn) | > 60 µM (inactive) | > 60 | > 60
O=C(Nc1cccc2ncccc12)c1cc2ccccc2o1 | > 60 µM (inactive) | > 60 | > 60
CC1Cc2ccccc2N1C(=O)CSc1nnc2sc3ccccc3n12 (stereo not drawn) | > 60 µM (inactive) | > 60 | 10.1
Cc1sc2nc3c4ccccc4c(NCc4ccco4)nn3c(=O)c2c1C | > 60 µM (inactive) | > 60 | 4.2
CCC(C)(C)NC(=O)C(c1cccnc1)N(CCOC)C(=O)Cn1nnc2ccccc21 (stereo not drawn) | > 60 µM (inactive) | > 60 | > 60
COc1ccc(OC)c(C2=NOC(C(=O)Nc3cc(C)nn3-c3ccccc3)C2)c1 (stereo not drawn) | > 60 µM (inactive) | > 60 | > 60
O=c1[nH]c2ccccc2n1Cc1ccc(Cl)cc1 | > 60 µM (inactive) | > 60 | > 60
CCOC(=O)/C=c1\s/c(=C\c2ccccc2OC)c(=O)n1CC(=O)N1CCOCC1 | > 60 µM (inactive) | > 60 | > 60
Cn1c2ccccc2c(=O)c2c(=O)n(C3CCCCC3)c(-c3cccs3)nc21 | 59.3 µM (inactive) | > 60 | 6.45
O=C(CSc1ccc2nnc(-c3cccc(F)c3)n2n1)NCc1ccco1 | > 60 µM (inactive) | > 60 | > 60
O=C(Cn1cnc2ccccc2c1=O)N(Cc1ccco1)c1ccc(O)cc1 | > 60 µM (inactive) | > 60 | > 60
COc1ccc(Nc2ncnc3c2cnn3-c2ccccc2)cc1OC | > 60 µM (inactive) | > 60 | > 60
O=C1/C(=C\c2ccco2)SC(=S)N1Cc1ccccc1 | > 60 µM (inactive) | > 60 | 6.46
O=C(CSc1ccc2nnc(-c3cccnc3)n2n1)NCc1ccco1 | > 60 µM (inactive) | > 60 | > 60
CC(NC(=O)c1ccc(S(=O)(=O)N(C)C)cc1)c1ccccc1 (stereo not drawn) | > 60 µM (inactive) | > 60 | > 60
O=C(Nc1c(-c2ccccc2)nc2sccn12)c1ccccc1 | 0.634 µM | > 60 | > 60
COc1ccc(OC)c(-n2c(SC)nnc2-c2c[nH]c3ccccc23)c1 | > 60 µM (inactive) | > 60 | > 60
COc1ccc2c(c1)CCc1c(C(=O)N3CCCC3)noc1-2 | > 60 µM (inactive) | > 60 | > 60
CCOCCCNC(=O)C1CCCCN1S(=O)(=O)c1ccc(F)cc1 (stereo not drawn) | > 60 µM (inactive) | > 60 | > 60

Structure (SMILES) | EC50 | EC90 [µM] | CC50 [µM]
Cc1cccc(-n2ncc3c(N4CCCc5ccccc54)ncnc32)c1 | > 60 µM (inactive) | > 60 | > 60
COc1ccc(OC)c(Nc2ncnc3c2cnn3-c2ccccc2)c1 | > 60 µM (inactive) | > 60 | > 60
CCOC(=O)/C=C1\SCC(=O)N1CC(=O)Nc1ccc(OC)c(OC)c1 | > 60 µM (inactive) | > 60 | > 60
C#CCSc1nnc(-c2ccc(OC)cc2)o1 | > 60 µM (inactive) | > 60 | > 60
Cc1cc(NC(=O)CSc2nnc(-c3cccnc3)n2C2CCCCC2C)no1 (stereo not drawn) | > 60 µM (inactive) | > 60 | > 60
CC(C)(C)OC(=O)NCCc1nnc(SCc2ccccc2Cl)o1 | > 60 µM (inactive) | > 60 | > 60
CCC(C)NC(=O)C1CCCCN1S(=O)(=O)c1ccc(F)cc1 (stereo not drawn) | > 60 µM (inactive) | > 60 | > 60
Cc1nc2nc(-c3cccnc3)[nH]n2c(=O)c1Cc1ccccc1 | > 60 µM (inactive) | > 60 | > 60
Cc1cccc(-n2ncc3c(N4CCc5ccccc54)ncnc32)c1 | > 60 µM (inactive) | > 60 | > 60
COc1ccc(C)cc1NC(=O)C1CC(=O)OC12CCCCC2 (stereo not drawn) | > 60 µM (inactive) | > 60 | > 60
CC(C)CNC(=O)c1cccc(NC(=O)c2ccc(NC(=O)c3ccco3)cc2)c1 | > 60 µM (inactive) | > 60 | > 60
COc1ccc(-c2nnc3ccc(SCC(=O)NCc4ccco4)nn23)cc1 | > 60 µM (inactive) | > 60 | > 60
Cc1noc(C)c1CSc1nc2sc(C)c(C)c2c(=O)n1C1CCCC1 | > 60 µM (inactive) | > 60 | 10
CCCCN(C(=O)Cn1nnc2ccccc21)C(C(=O)NCCOC)c1ccc(OC)cc1 (stereo not drawn) | > 60 µM (inactive) | > 60 | > 60
Nc1c(C(=O)Nc2ccc(Cl)cc2)oc2ccccc12 | > 60 µM (inactive) | > 60 | > 60
COc1ccc(-c2csc(NC(=O)C3CCCCN3S(=O)(=O)c3ccccc3)n2)cc1 (stereo not drawn) | > 60 µM (inactive) | > 60 | > 60
Cc1nc2nc(-c3ccc(Cl)cc3)[nH]n2c(=O)c1Cc1ccccc1 | > 60 µM (inactive) | > 60 | > 60
COCCNC(=O)C(c1ccco1)N(C(=O)Cn1nnc2ccccc21)c1ccccc1C (stereo not drawn) | > 60 µM (inactive) | > 60 | > 60
Cc1ccc(-c2nnc3ccc(SCC(=O)NCc4ccco4)nn23)cc1 | > 60 µM (inactive) | > 60 | > 60
CC1Cc2ccccc2N1C(=O)C1CCCCN1S(=O)(=O)c1ccccc1 (stereo not drawn) | > 60 µM (inactive) | > 60 | > 60
O=C(O)CCS(=O)(=O)c1nc(-c2cccs2)cc(C(F)(F)F)n1 | > 60 µM (inactive) | > 60 | > 60
CCCCSc1nnc(-c2ccc(C)cc2)o1 | > 60 µM (inactive) | > 60 | > 60
